Like-named read-outs stand apart in the source and are kept apart here.
Legend:
FXR = biological target: T1, FXR (Homo sapiens, UniProt Q96RI1); test: PathHunter NHR protein interaction assay, agonist mode (FXR)
T1 sequence (Q96RI1 1-486): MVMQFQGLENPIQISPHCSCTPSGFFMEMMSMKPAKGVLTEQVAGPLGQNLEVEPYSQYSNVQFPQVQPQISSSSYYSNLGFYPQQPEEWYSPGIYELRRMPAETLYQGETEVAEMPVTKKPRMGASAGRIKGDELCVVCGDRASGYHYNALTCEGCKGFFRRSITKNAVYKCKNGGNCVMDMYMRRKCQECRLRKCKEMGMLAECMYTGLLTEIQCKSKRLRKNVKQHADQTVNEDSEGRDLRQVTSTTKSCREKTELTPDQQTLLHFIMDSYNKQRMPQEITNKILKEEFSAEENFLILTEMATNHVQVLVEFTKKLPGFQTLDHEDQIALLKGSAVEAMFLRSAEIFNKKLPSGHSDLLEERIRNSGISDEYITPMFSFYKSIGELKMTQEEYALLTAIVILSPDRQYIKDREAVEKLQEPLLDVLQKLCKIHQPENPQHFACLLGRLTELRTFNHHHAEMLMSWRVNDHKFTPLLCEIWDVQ
Experimental: PathHunter® CHO-K1 FXR protein interaction cells were expanded from freezer stocks according to standard procedures. Cells were seeded in a total volume of 20 μL into white walled, 384-well microplates and incubated at 37° C. for the appropriate time prior to testing. Assay media contained charcoal-dextran filtered serum to reduce the level of hormones present. For agonist determination, cells were incubated with sample to induce response. […] For antagonist determination, cells were pre-incubated with antagonist followed by agonist challenge at the EC80 concentration. […] Microplates were read following signal generation with a PerkinElmer Envision™ instrument for chemiluminescent signal detection. Compound activity was analyzed using CBIS data analysis suite (ChemInnovation, CA). For agonist mode assays, percentage activity was calculated using the following formula: % Activity=100%×(mean RLU of test sample−mean RLU of vehicle control)/(mean MAX control ligand−mean RLU of vehicle control).
In this assay, two weakly complementing fragments of the β-galactosidase are expressed within stably transfected cells. The complementing fragments of the β-galactosidase are translationally fused to the C-terminus of a full-length FXR and to the steroid receptor coactivator peptide (SRCP), respectively. When bound by ligand, the FXR will migrate to the nucleus and recruit the SRCP domain, whereby complementation occurs, generating a unit of active β-galactosidase and production of chemiluminescent signal. Thus, measurement of chemiluminescent signal directly reflects FXR-coactivator interaction.

[1] = Pharmacokinetic studies of Example 11 in rats; type: in vivo, Sprague-Dawley rats
Experimental: To investigate whether Example 11 is indeed an intestine-selective/specific FXR agonist, its pharmacokinetic profile was evaluated. Male Sprague-Dawley rats (7-week old, 240-260 g) were purchased from Orient Bio. Inc. (Seongnam, Korea). Rats were kept in the cage maintained under a controlled environment (temperature of 23±3° C., relative humidity of 50±5%, and 12 h dark-light cycle) for at least 3 days. Rats were fasted overnight before dose administration. The Example 11 was dissolved in a mixture of DMSO, Tween 80, and 0.9% saline solution (v:v:v, 1:1:8) at a concentration of 2.5 mg/mL for intravenous injection (IV). Also, Example 11 was dissolved in corn oil for oral administration (PO). Rats were divided into two groups; IV group and PO group including at least 6 animals per group. After anesthetized with isoflurane, rats were given the dose of 5 mg/kg via IV injection or 80 mg/kg via PO administration by oral gavage into the stomach. Blood samples (approximately 0.25 mL) were obtained by subclavian vein puncture at 0, 0.033, 0.083, 0.167, 0.333, 0.667, 1, 2, 3, 5, 7, 10, and 24 h after IV injection. After PO administration, blood samples were obtained at 0, 0.083, 0.167, 0.333, 0.667, 1, 2, 3, 5, 7, 10, and 24 h post-dose. Subsequently, blood samples were collected in 1.5-mL Eppendorf tube on an ice. The tubes were centrifuged at 13500 rpm for 15 min at 4° C. to separate the plasma fraction. Then, the plasma samples were stored at […] until HPLC analysis. To prepare the samples for HPLC analysis, 5 μL of Example 11 or Example 24 and 5 μL of internal standard, Example 4 were added to 45 μL of plasma. For extraction, 45 μL of MeCN was added to the mixture. Then, the mixture was vortexed for 2 min and centrifuged at 13500 rpm for 15 min at room temperature. The 60 μL of clear supernatant was transferred to an insert. Then, the HPLC auto-injector was programmed to inject 40 μL of the sample to the HPLC system for analysis. The linearity of the calibration curve was obtained by plotting the peak area ratio (area of Example 11 or area of Example 24/area of Example 4). Pharmacokinetic parameters were calculated by non-compartmental analysis of the plasma concentration-time profiles using Winnonlin® Professional version 8.01 software (Pharsight Corporation, Mountain View, CA). Oral bioavailability (F) was calculated by the ratio of the dose-corrected area under the plasma drug concentration-time curve (AUClast) between oral administration and intravenous injection.

[2] = Table 4, 5 concentrations, 3-fold dilution from 3.3 μM (GW4064: 10 conc. from 10 μM), one experiment in duplicate, NA = inactive at 3.3 μM
[3] = read-out: % max. rel. efficacy, Table 4, relative to GW4064, top conc. 3.3 μM, one experiment in duplicate
[4] = read-out: % max. rel. efficacy, Table 2, relative to GW4064, top conc. 3.3 μM, one experiment in duplicate
[5] = rat, intravenous Example 11, 5 mg/kg

Row | EC50 (FXR; [2]) [µM] | Emax (FXR; [3]) [%] | Compound | further results
1 | – | 42 | CC(C)OC(=O)/C=C/c1cccc(N(Cc2ccc(-c3ccc(N(C)C)cc3)c(C#N)c2)C(=O)C2CCCCC2)c1F [Example 19, (E)-3-(3-((2-cyano-4′-dimethylaminobiphenyl-4-ylmethyl)cyclohexanecarbonylamino)-2-fluorophenyl)acrylic acid isopropyl ester] | –
2 | 0.9 | 46 | CN(C)c1ccc(-c2ccc(CN(C(=O)C3CCCCC3)c3cccc(/C=C/C(=O)OC4CC4)c3)cc2C#N)cc1 [Example 23, (E)-3-(3-((2-cyano-4′-dimethylaminobiphenyl-4-ylmethyl)cyclohexanecarbonylamino)phenyl)acrylic Acid Cyclopropyl Ester] | –
3 | 1.5 | 15 | COC(=O)/C=C/c1ccc(F)c(N(Cc2ccc(-c3ccc(N(C)C)cc3)c(C#N)c2)C(=O)C2CCCCC2)c1 [Example 20, (E)-3-(3-((2-cyano-4′-dimethylaminobiphenyl-4-ylmethyl)cyclohexanecarbonylamino)-4-fluorophenyl)acrylic acid methyl ester] | –
4 | 1.3 | 23 | CCOC(=O)/C=C/c1cc(N(Cc2ccc(-c3ccc(N(C)C)cc3)c(C#N)c2)C(=O)C2CCCCC2)ccc1F [Example 15] | –
5 | 1.3 | 19 | COC(=O)/C=C/c1cccc(N(Cc2ccc(-c3ccc(N(C)C)cc3)c(C#N)c2)C(=O)C2CCCCC2)c1F [Example 17, (E)-3-(3-((2-cyano-4′-dimethylaminobiphenyl-4-ylmethyl)cyclohexanecarbonylamino)-2-fluorophenyl)acrylic acid methyl ester] | –
6 | – | 3 | CC(C)OC(=O)/C=C/c1ccc(F)c(N(Cc2ccc(-c3ccc(N(C)C)cc3)c(C#N)c2)C(=O)C2CCCCC2)c1 [Example 22, (E)-3-(3-((2-cyano-4′-dimethylaminobiphenyl-4-ylmethyl)cyclohexanecarbonylamino)-4-fluorophenyl)acrylic acid isopropyl ester] | –
7 | 1.6 | 9 | CCOC(=O)/C=C/c1ccc(F)c(N(Cc2ccc(-c3ccc(N(C)C)cc3)c(C#N)c2)C(=O)C2CCCCC2)c1 [Example 21, (E)-3-(3-((2-cyano-4′-dimethylaminobiphenyl-4-ylmethyl)cyclohexanecarbonylamino)-4-fluorophenyl)acrylic acid ethyl ester] | –

Continued, compound first:

Row | Compound | EC50 (FXR; [2]) [µM] | Emax (FXR; [3]) [%] | further results
8 | CC(C)OC(=O)/C=C/c1cc(F)cc(N(Cc2ccc(-c3ccc(N(C)C)cc3)c(C#N)c2)C(=O)C2CCCCC2)c1 [Example 13, (E)-3-(3-((2-cyano-4′-dimethylaminobiphenyl-4-ylmethyl)cyclohexanecarbonylamino)-5-fluorophenyl)acrylic acid isopropyl ester] | 0.8 | 20 | –
9 | COC(=O)/C=C/c1cccc(N(Cc2ccc(-c3ccc(N(C)C)cc3Cl)c(C#N)c2)C(=O)C2CCCCC2)c1 [Example 7, (E)-3-(3-((2′-chloro-2-cyano-4′-dimethylaminobiphenyl-4-ylmethyl)cyclohexane-carbonylamino)phenyl)acrylic acid methyl ester] | 1.2 | 21 | –
10 | COCc1cc(CN(C(=O)C2CCCCC2)c2cccc(/C=C/C(=O)OC)c2)ccc1-c1ccc(N(C)C)cc1 [Example 2, (E)-3-(3-(cyclohexanecarbonyl-(4′-dimethylamino-2-methoxymethylbiphenyl-4-ylmethyl)amino)phenyl)acrylic acid methyl ester] | – | – | EC50 (FXR): > 10 µM; Emax (FXR; [4]): 5%
11 | COC(=O)/C=C/c1cccc(N(Cc2ccc(-c3ccc(N(C)C)cc3)c(CO)c2)C(=O)C2CCCCC2)c1 [Example 1, (E)-3-(3-(cyclohexanecarbonyl-(4′-dimethylamino-2-hydroxymethylbiphenyl-4-ylmethyl)amino)phenyl)acrylic acid methyl ester] | – | – | Emax (FXR; [4]): 1%
12 | COC(=O)/C=C/c1cc(F)cc(N(Cc2ccc(-c3ccc(N(C)C)cc3)c(C#N)c2)C(=O)C2CCCCC2)c1 [Example 11, (E)-3-(3-((2-cyano-4′-dimethylaminobiphenyl-4-ylmethyl)cyclohexanecarbonylamino)-5-fluorophenyl)acrylic Acid Methyl Ester] | 0.9 | 56 | bioavailability ([1]; male, Sprague-Dawley, plasma, rat, oral 80 mg/kg vs intravenous 5 mg/kg, dose-corrected AUClast ratio, read-out: F (oral bioavailability)): 4%; AUC(0-t) ([1]; male, Sprague-Dawley, rat plasma, oral dose of Example 11, 80 mg/kg in corn oil): 1500 ± 600 ng·h/mL; detected in plasma until (time after administration) [1, 5]: 20 min; metabolism after intravenous administration [1, 5]: rapidly metabolized to the corresponding carboxylic acid, Example 24; detected after (time after oral administration) ([1]; rat, oral Example 11, 80 mg/kg): 5 h; % max. rel. efficacy (FXR; Table 5, relative to GW4064, mean ± SEM of two or three independent experiments in duplicate): 53 ± 3^c* %; Emax (FXR; read-out: % max. rel. efficacy, Table 5, relative to GW4064, mean ± SEM of two or three independent experiments in duplicate): 53 ± 3%
13 | COC(=O)/C=C/c1cccc(N(Cc2ccc(-c3ccc(N(C)C)cc3C#N)c(C#N)c2)C(=O)C2CCCCC2)c1 [Example 8, (E)-3-(3-(cyclohexanecarbonyl-(2,2′-dicyano-4′-dimethylaminobiphenyl-4-ylmethyl)-amino)phenyl)acrylic acid methyl ester] | 1.6 | 10 | –
14 | COC(=O)/C=C/c1cccc(N(Cc2ccc(-c3ccc(N(C)C)cc3)c(C3OCCO3)c2)C(=O)C2CCCCC2)c1 [Example 3, (E)-3-(3-(cyclohexanecarbonyl-(4′-dimethylamino-2-[1,3]dioxolan-2-ylbiphenyl-4-ylmethyl)amino)phenyl)acrylic acid methyl ester] | – | – | Emax (FXR; [4]): 3%
15 | CCOC(=O)/C=C/c1cccc(N(Cc2ccc(-c3ccc(N(C)C)cc3)c(C#N)c2)C(=O)C2CCCCC2)c1 [Example 9, (E)-3-(3-((2-cyano-4′-dimethylaminobiphenyl-4-ylmethyl)cyclohexanecarbonylamino)phenyl)acrylic acid ethyl ester] | 1.2 | 40 | –
16 | COC(=O)/C=C/c1cccc(N(Cc2ccc(-c3ccc(N(C)C)cc3F)c(C#N)c2)C(=O)C2CCCCC2)c1 [Example 6, (E)-3-(3-((2-cyano-4′-dimethylamino-2′-fluorobiphenyl-4-ylmethyl)cyclohexanecarbonylamino)phenyl)acrylic Acid Methyl Ester] | 0.9 | 42 | –
17 | CCOC(=O)/C=C/c1cc(F)cc(N(Cc2ccc(-c3ccc(N(C)C)cc3)c(C#N)c2)C(=O)C2CCCCC2)c1 [Example 12, (E)-3-(3-((2-cyano-4′-dimethylaminobiphenyl-4-ylmethyl)cyclohexanecarbonylamino)-5-fluorophenyl)acrylic acid ethyl ester] | 1 | 47 | –
18 | COC(=O)/C=C/c1cc(N(Cc2ccc(-c3ccc(N(C)C)cc3)c(C#N)c2)C(=O)C2CCCCC2)ccc1F [Example 14] | 1.5 | 23 | –

Reference: patent US12522562B2, “Intestine-specific partial agonists of farnesoid X receptor and uses thereof” (EWHA DrugDesignHouse Co., Ltd., priority 2022, dated 2026)
